# Measured values as given in ChEMBL document CHEMBL5728730, “Tri-substituted imidazoles for the inhibition of TGF beta and methods of treatment” (2021).
# Target: T1, TGF-beta receptor type-1 (Homo sapiens, UniProt P36897)
# T1 sequence (P36897 whole entry): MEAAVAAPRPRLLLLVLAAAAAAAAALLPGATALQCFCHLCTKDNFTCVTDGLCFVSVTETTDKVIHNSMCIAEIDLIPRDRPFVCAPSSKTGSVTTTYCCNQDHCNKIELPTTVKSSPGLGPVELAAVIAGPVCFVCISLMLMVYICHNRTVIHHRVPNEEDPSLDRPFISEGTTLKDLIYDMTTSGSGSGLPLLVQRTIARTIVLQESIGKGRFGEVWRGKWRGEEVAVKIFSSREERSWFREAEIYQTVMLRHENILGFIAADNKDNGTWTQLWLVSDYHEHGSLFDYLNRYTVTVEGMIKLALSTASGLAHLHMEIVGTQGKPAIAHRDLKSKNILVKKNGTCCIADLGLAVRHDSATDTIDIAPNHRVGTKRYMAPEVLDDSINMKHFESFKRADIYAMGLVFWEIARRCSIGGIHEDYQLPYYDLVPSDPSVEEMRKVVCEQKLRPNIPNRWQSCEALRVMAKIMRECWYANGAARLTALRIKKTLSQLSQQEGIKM
# Experiment: LanthaScreen™Eu Kinase Binding Assay TGFBR1 (ALK5): Exemplified compounds were screened in 1% DMSO (final concentration) by 3-fold serial dilutions from 10,000 nM to 0.316 nM to produce an IC50 or at single concentrations of 10,000, 1000 and 100 nM according to the following protocol. To low volume, white 384-well plates (Greiner Cat #784207) add 160 nL 100× compound in 100% DMSO, 3.84 uL kinase buffer (50 mM HEPES, pH 7.5, 0.01% BRIJ-35, 10 mM MgCl2, 1 mM EGTA), 8 uL 2× kinase/antibody mixture in kinase buffer (final ALK5 concentration of 5 nM; final Eu-anti-GST antibody concentration of 2 nM), 4 uL 4× Tracer #178 in kinase buffer (final concentration of 5 nM). Gently shake the plates for 30 seconds and incubate at room temperature for 1 hour before reading fluorescence on a plate reader. Percent inhibition was determined compared to DMSO only control (maximal ALK5 tracer binding) and sigmoidal dose response curve fit yielded IC50 values as indicated in Table 2.
row,IC50,Structure (SMILES)
1,138 nM,CC(C)n1ccc(-c2nc(CNc3cc(F)cc(C#N)c3)[nH]c2-c2ccc3nccnc3c2)n1
2,46.4 nM,CC(C)n1ccc(-c2nc(CNc3cc(F)cc(F)c3)[nH]c2-c2ccc3nccnc3c2)n1
3,< 1000 nM,CC(C)n1ccc(-c2nc(-c3ccc(C(N)=O)cc3)[nH]c2-c2ccc3ncnn3c2)n1
